Data from PubChem BioAssay (NCI).
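Tested at 5 concentrations; 48 h exposure; 96-well plates; endpoints linearly interpolated, else capped at highest concentration. GI50 is the concentration that inhibits growth by half. TGI marks complete inhibition of growth.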 Where a SMILES comes first, the peptide text is derived from it. The star is where a group is joined. OBn = c1ccc(CO*)cc1

Tests used:
Assay in all cases: growth of human tumour cells (NCI), 48 h
NCI-H23 lung = tested on: NCI-H23 lung
OVCAR-4 ovarian = tested on: OVCAR-4 ovarian
SK-MEL-2 melanoma = tested on: SK-MEL-2 melanoma
UACC-257 melanoma = tested on: UACC-257 melanoma
DLD-1 colon = tested on: DLD-1 colon
DMS 114 small cell lung = tested on: DMS 114 small cell lung
HOP-18 NSCLC = tested on: HOP-18 NSCLC
KM20L2 colon = tested on: KM20L2 colon
LXFL 529 NSCLC = tested on: LXFL 529 NSCLC
M19-MEL melanoma = tested on: M19-MEL melanoma
SNB-78 CNS = tested on: SNB-78 CNS

SMILES | TGI (NCI-H23 lung) [µM] | TGI (OVCAR-4 ovarian) [µM] | TGI (SK-MEL-2 melanoma) [µM] | TGI (UACC-257 melanoma) [µM] | further results
COc1ccc(-n2cnc3c(NC(C)(C)C(=O)O)ncnc32)cc1 | > 100 | > 100 | > 100 | > 100 | –
CCOC(=O)c1c(-c2ccccc2)[nH]c2ccc(Cl)cc2c1=O | > 100 | 44.8 | > 100 | > 100 | –
COc1ccc2c(c1)/C(=C\c1cccc(/C=C3/C(=O)Nc4ccc(OC)cc43)n1)C(=O)N2 | 2.6 | 3.28 | 15.5 | 18.4 | –
O=C(O)CCSc1nnc(COc2ccc(Cl)cc2)n1-c1ccccc1 | > 100 | > 100 | > 100 | > 100 | –
O=C1c2cccnc2C(=O)c2c1nc1ccccc1c2-c1cncc(-c2c3c(nc4ccccc24)C(=O)c2cccnc2C3=O)c1 | 0.944 | 1.91 | 4.1 | 1.08 | –
O=C(/C=C/c1ccccc1)CCC1C(=O)NC(=O)NC1=O | > 100 | > 100 | > 100 | > 100 | –
COC(=O)c1cc(C#N)[nH]c1-c1cccs1 | > 100 | > 100 | – | > 100 | –
COC(=O)N/N=C(\C)C(CN1CCOCC1)C(c1ccccc1)c1cc2ccccc2oc1=O (configuration not stated) | > 100 | > 100 | > 100 | > 100 | –
COc1cc(C2S/C(=C/c3ccccc3)C(=O)N2c2ccc([N+](=O)[O-])cc2)cc(OC)c1OC (configuration not stated) | > 100 | > 100 | > 100 | > 100 | –
CCOC(=O)/C(=C\NC(C)(C)C)c1nc2ccccc2o1 | > 100 | > 100 | – | 51.1 | –
CN(C)CCN1C(=O)c2ccccc2C1(O)c1ccc(Cl)cc1 (configuration not stated) | > 100 | > 100 | – | 63.9 | –
CCOC(=O)Oc1cc2c(ccn2C)c2c1c1ccccc1n2C(=O)OCC | > 100 | > 100 | > 100 | > 100 | –
CC(Oc1ccc(Cl)cc1Cl)C(=O)NN1C(=O)CSC1c1ccc(Cl)cc1 (configuration not stated) | > 100 | > 100 | > 100 | > 100 | –
CCOC(=O)c1c(NC(=O)c2ccc(OC)cc2)sc2c1CCCC2 | > 100 | – | > 100 | > 100 | –
C/C(=C\COP(=O)(O)OP(=O)(O)O)CC/C=C(\C)CNc1ccc([N+](=O)[O-])cc1 | > 100 | > 100 | > 100 | > 100 | –
CCn1c(SCC(=O)NNC(=S)Nc2ccc(F)cc2)nc2ccccc2c1=O | > 100 | > 100 | > 100 | > 100 | –
O=c1c2c3c(sc2nc2n1N=CN(c1ccc(Cl)cc1)C2)CCCC3 | > 100 | > 100 | > 100 | > 100 | –
CC1=[N+]([O-])C(C)(C)N(O)C1(C)C | > 100 | > 100 | > 100 | – | –
Cc1ccc(S(=O)(=O)n2cnc(CC(NC(=O)C3CCC(=O)N3C(=O)OCc3ccccc3)C(=O)N3CCCC3C(=O)NN)c2)cc1 (configuration not stated) | > 100 | – | > 100 | > 100 | –
C#C[C@]1(O)CC[C@H]2[C@@H]3CCC4=C/C(=N\OCCN5CCCC5)CC[C@]4(C)[C@H]3CC[C@@]21C | 31.3 | > 62.1 | 24.4 | 22.9 | –
CC(C)(C)C(=O)Nc1cccc(-c2ccc[nH]2)n1 | > 100 | > 100 | > 100 | > 100 | –
CC(C)(CCCCC(C)(C)NCC1COc2ccccc2O1)NCC1COc2ccccc2O1 (configuration not stated) | > 10 | > 10 | 6.68 | 4.1 | –
NC(CCC(=O)OCc1ccccc1)C(=O)NC(CCC(=O)OCc1ccccc1)C(=O)O (configuration not stated) (H-Glu(OBn)-Glu(OBn)-OH; configuration not given here) | > 100 | > 100 | – | – | –
O=c1[nH]c(=O)n(C2CC(O)C(CO)O2)c2nc3ccc4ccccc4c3nc12 (configuration not stated) | > 100 | > 100 | > 100 | > 100 | –

SMILES | TGI (NCI-H23 lung) [µM] | TGI (OVCAR-4 ovarian) [µM] | TGI (SK-MEL-2 melanoma) [µM] | TGI (UACC-257 melanoma) [µM] | further results
CC1(C)OC(=O)CC12CCN(Cc1ccccc1)CC2 | > 100 | > 100 | > 100 | > 100 | –
O=c1[nH]n(Cc2ccccc2CCl)c2ccc([N+](=O)[O-])cc12 | > 100 | > 100 | > 100 | > 100 | –
COc1cc(/C=N/NC2=NCCCN2)ccc1O | > 100 | > 100 | > 100 | > 100 | –
CC(C)C(Cl)CC/C(CBr)=C(\Cl)CCl (configuration not stated) | 8.65 | 7.34 | 5.64 | 11 | –
CCO/C(O)=C(/C(=N)N1CCCC1)C(=O)Nc1ccc(Cl)cc1 | > 100 | > 100 | > 100 | > 100 | –
CN1CCC/C1=C1\C(=O)c2cccn2C1=O | > 100 | > 100 | > 100 | > 100 | –
COc1ccc(NC(C)=O)cc1N1C(=O)/C(=C\c2cc(OC)c(OC)c(OC)c2)S(=O)(=O)C1c1ccccc1 (configuration not stated) | > 100 | > 100 | > 100 | > 100 | –
O=c1[nH]c2ccsc2c(=O)n1COCc1ccccc1 | > 100 | > 100 | > 100 | > 100 | –
N#CC1=C(N)Nc2nc3ccccc3n2C1c1ccccc1 (configuration not stated) | > 100 | – | > 100 | > 100 | –
O=C(NN1C(=O)c2ccccc2C1=O)c1ccccc1Nc1ccccc1C(=O)NN1C(=O)c2ccccc2C1=O | > 100 | > 100 | > 100 | > 100 | –
O=Cc1ccc2c(c1)CC1(C2)Cc2ccc(C=O)cc2C1 | 49.8 | > 69.7 | 30.8 | 40.5 | –
C=CC(c1ccccc1)C1(O)c2cccc(O)c2C(=O)c2c(O)cccc21 (configuration not stated) | 30.8 | 33.2 | 26.4 | 40.2 | –
O=C(/C=C\c1ccccc1-c1ccccc1)c1ccccc1 | > 100 | > 100 | – | > 100 | –
N#CC1=C(N2CCOCC2)CCC1 | > 100 | > 100 | > 100 | > 100 | –
CC(=C(C(=O)O)C(=O)O)c1cc(-c2cccs2)cc(-c2ccc(Cl)cc2)c1O | 32.6 | > 71.9 | > 88.6 | 33.5 | –
CO[C@H](c1ccccc1)[C@H](O)[C@](O)(c1ccccc1)P(=O)(OC)OC | > 100 | > 100 | > 100 | > 100 | –
COC(=O)C(Cc1c[nH]c2ccccc12)NP(=O)(O)OCC1OC(n2cc(F)c(=O)[nH]c2=O)CC1O (configuration not stated) | > 100 | > 100 | > 100 | > 100 | –
Cc1ccccc1NC(=O)/C(C#N)=N\Nc1nc[nH]c1C(N)=O | > 100 | > 100 | > 100 | > 100 | –
Cc1cc2nc3c(C#N)c(-c4ccccc4)cc(Nc4ccc(F)cc4)n3c2cc1C | 47.2 | > 100 | – | > 100 | –
NC(=S)N/N=C(/C(=O)Nc1nc2ccc([N+](=O)[O-])cc2s1)C1C(=O)NC(=S)NC1=O | > 100 | > 100 | > 100 | > 100 | –
CCOn1cc(C2=C(c3c[nH]c4ccccc34)C(=O)NC2=O)c2ccccc21 | 0.47 | > 72.4 | 25.8 | 20.5 | GI50 (NCI-H23 lung): < 0.028 µM; GI50 (OVCAR-4 ovarian): 14.6 µM; GI50 (SK-MEL-2 melanoma): 12.2 µM; GI50 (UACC-257 melanoma): 0.859 µM
CNC(=S)NNC1=NCCCCN1 | > 100 | > 100 | > 100 | > 100 | –
N=C(N)C1CN(CC=O)C(=O)NC1=O (configuration not stated) | > 100 | > 100 | – | > 100 | –
CC(CCC(=O)O)[C@H]1CCC2[C@H]3C(CC(=O)[C@@]21C)[C@@]1(C)CCC(O)C[C@H]1C[C@@H]3O (some centres not stated) | > 100 | > 100 | > 100 | > 100 | –

SMILES | TGI (NCI-H23 lung) [µM] | TGI (OVCAR-4 ovarian) [µM] | TGI (SK-MEL-2 melanoma) [µM] | TGI (UACC-257 melanoma) [µM] | further results
O=C1CCSc2c(cnc3ccccc23)N1 | > 100 | > 100 | > 100 | > 100 | –
Nc1c(Cl)c([N+](=O)[O-])cc2c1OCCCCO2 | > 100 | > 100 | > 100 | > 100 | –
C=C(Cl)C(Br)(CBr)CCC(Br)C(C)(C)Br (configuration not stated) | > 10 | > 10 | – | – | –
O=C(CCCN1CC=C(n2c(=O)[nH]c3ccccc32)CC1)c1cccs1 | > 100 | > 100 | > 100 | > 100 | –
COc1cc(/C=C2\N=C(c3ccccc3)N(/N=C/c3cc4cc(C)ccc4nc3Cl)C2=O)cc(OC)c1OC | – | > 100 | 48 | > 100 | –
COc1ccc(C(=O)N2CCN(c3ccc4[nH]c(=O)oc4c3)CC2)cc1 | > 100 | > 100 | > 100 | > 100 | –
CC(C)=CCC[C@@H](C)C1=C(Nc2ccccc2)C(O)=C(C)C(=O)C1=O | 12.9 | > 43.5 | 19.8 | 41.9 | –
COc1cc(-c2c(C)c(C)nc(OC)c2C#N)cc(OC)c1OC | > 100 | > 100 | > 100 | > 100 | TGI (DLD-1 colon): > 100 µM; TGI (DMS 114 small cell lung): > 100 µM; TGI (HOP-18 NSCLC): > 100 µM; TGI (KM20L2 colon): > 100 µM; TGI (LXFL 529 NSCLC): > 100 µM; TGI (M19-MEL melanoma): > 100 µM; TGI (SNB-78 CNS): > 100 µM
N#CC(C#N)=C1CCCCc2ccc([N+](=O)[O-])cc21 | > 100 | > 100 | > 100 | > 100 | –
O=C1NC(Cc2c[nH]c3ccccc23)C(=O)N2C(c3ccccc3)c3[nH]c4ccccc4c3C[C@@H]12 (some centres not stated) | 57.1 | > 100 | 46.5 | 51.6 | –
CC(C)N(c1cc2c(cc1F)c(=O)c(C(=O)O)cn2-c1ccc(N2CCN(C)CC2)cn1)C(C)C | > 100 | > 100 | – | > 100 | –
C/C(=N/NC(=S)N1CCCC1)c1cccc(/C(C)=N\NC(=S)N2CCCC2)n1 | 6.5 | – | 4.21 | – | –
O=S1(=O)OCCCOS(=O)(=O)C1Br | > 100 | > 100 | > 100 | > 100 | –
CCCCc1ccc(N2C(=O)c3cccnc3S2(=O)=O)cc1 | > 100 | > 100 | > 100 | > 100 | –
CN1CCN(C(=S)N(C)C(=O)c2cccs2)CC1 | > 100 | > 100 | > 100 | > 100 | –
O=C(Nc1ccccc1)C(=O)C(C(=O)c1ccccc1)C(c1ccccc1)c1ccccc1 (configuration not stated) | > 10 | > 10 | – | > 10 | –
COC(=O)[C@]12CSC[C@H]1C[C@H](c1ccc(N(C)C)cc1)N2 | > 100 | > 100 | > 100 | > 100 | –
COC(=O)/C=C(\S/C(=C(/c1ccc(OC)cc1)n1cc(C(=O)OC)c(C(=O)OC)n1)c1ccc(OC)cc1)C(=O)OC | > 100 | 68.3 | > 100 | 25.3 | –
CSc1ccc(-c2cc(-c3nc4ccccc4[nH]3)nc3[nH]c(-c4nc5ccccc5[nH]4)cc(=O)c23)cc1 | > 100 | > 100 | > 100 | > 100 | –
NC(=O)NC(=O)c1ccc(NC(=O)CBr)cc1 | 4.59 | – | 4.61 | 5.29 | –
Cc1nc2ccc(N=NN(C)C)cc2[nH]1 | – | > 100 | > 100 | > 100 | –
C/C(=C/CNc1ncnc2c1ncn2CCC#N)CO | > 100 | > 100 | – | > 100 | –
COC(=O)/C(C#N)=C(\Nc1ccccc1)N1CCCCC1 | > 100 | > 100 | > 100 | > 100 | –
COc1ccc(-c2cc(-c3ccco3)c(C#N)c(=S)n2C2OC(CO)C(O)C(O)C2O)cc1 (configuration not stated) | > 100 | > 100 | > 100 | > 100 | –
